The target of one data set is T1, human GnRH receptor (Homo sapiens, UniProt P30968).
T1 construct: expressed in transfected cells; host or cells: HEK 293 (hGnRH-R/293, from Dr. Stuart Sealfon)
T1 sequence (P30968 1-328): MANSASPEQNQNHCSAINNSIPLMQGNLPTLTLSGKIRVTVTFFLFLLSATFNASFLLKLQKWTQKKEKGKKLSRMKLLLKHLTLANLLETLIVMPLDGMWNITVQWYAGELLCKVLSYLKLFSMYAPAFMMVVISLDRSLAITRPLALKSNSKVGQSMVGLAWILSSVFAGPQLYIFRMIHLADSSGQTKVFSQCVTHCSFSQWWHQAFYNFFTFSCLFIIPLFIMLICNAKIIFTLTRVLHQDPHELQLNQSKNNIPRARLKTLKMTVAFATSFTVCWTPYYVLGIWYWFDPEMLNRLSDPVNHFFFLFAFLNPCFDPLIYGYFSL
The data set is described as follows: Radioligand binding, 125I-GnRH-A displacement, membranes of HEK 293 cells with human GnRH receptor. To be noted: binding assay conditions. The method, boiled down: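 Bound tracer was separated by filtration through polyethyleneimine-soaked GF/C filters and counted by liquid scintillation. IC50 from curve fitting; other species were tested under the same conditions.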
On to `Cc1cc2c(cc1Cc1ccc(C(=O)Nc3ccccc3)o1)C(C)(C)CCC2(C)C` [Compound 195], for which the “insolubility remark in hGnRH IC50 cell” value was “Insol. >3 uM”.

Regarding `CCCc1nc(NC(=O)c2ccc(Cc3cc4c(cc3C)C(C)(C)CCC4(C)C)o2)ncc1C(=O)OCC` [Compound 198], the “insolubility remark in hGnRH IC50 cell” value is listed as “Insol. >3 uM”.

The data set is the same for the next values; noted with them: read-out: hGnRH IC50.
As to `Cc1cc2c(cc1Cc1ccc(C(=O)NCCc3ccccc3Cl)o1)C(C)(C)CCC2(C)C` [Compound 55], the IC50 (in general, the concentration at which inhibition is half-maximal) is 0.57 µM.

For the compound `Cc1cc2c(cc1Cc1ccc(C(=O)NC[C@H]3CCCO3)o1)C(C)(C)CCC2(C)C` [Compound 57], the IC50 came out at 0.83 µM.

Regarding `Cc1cc2c(cc1Cc1ccc(C(=O)NC[C@@H]3CCCO3)o1)C(C)(C)CCC2(C)C` [Compound 58], the IC50 turned out to be 0.205 µM.

Turning to `Cc1cc2c(cc1Cc1ccc(C(=O)NCC3CN(Cc4ccccc4)CCO3)o1)C(C)(C)CCC2(C)C` (stereo not drawn) [Compound 59], the IC50 worked out at 0.98 µM.

Consider `Cc1cnc(CNC(=O)c2ccc(Cc3ccc4c(c3)C(C)(C)CCC4(C)C)o2)cn1` [Compound 60], for which the IC50 was 4.2 µM.

Take `COc1cccc(C)c1NC(=O)c1ccc(Cc2cc3c(cc2C)C(C)(C)CCC3(C)C)o1` [Compound 61]: the IC50 was 0.76 µM.

In the case of `Cc1cc2c(cc1Cc1ccc(C(=O)Nc3ccc(OCc4ccccc4)c(OCc4ccccc4)c3)o1)C(C)(C)CCC2(C)C` [Compound 62], the IC50 was above 10 µM.

For `Cc1cc2c(cc1Cc1ccc(C(=O)NCCNc3nccc(NCC4CCCO4)n3)o1)C(C)(C)CCC2(C)C` (stereo not drawn) [Compound 63], the IC50 is 2.5 µM.

In the case of `Cc1cc2c(cc1Cc1ccc(C(=O)NCCSCCCc3ccc(CN(C)C)o3)o1)C(C)(C)CCC2(C)C` [Compound 65], the IC50 was 0.71 µM.

For the compound `Cc1cc2c(cc1Cc1ccc(C(=O)NCc3cccc(-c4ccccc4)c3)o1)C(C)(C)CCC2(C)C` [Compound 66], the IC50 was found to be 3.5 µM.

As for `Cc1cc2c(cc1Cc1ccc(C(=O)NCCCCNc3nccc(NCC4CCCO4)n3)o1)C(C)(C)CCC2(C)C` (stereo not drawn) [Compound 69], the IC50 came out at 1.41 µM.

As for `COc1cc(OC)nc(NCC2CCC(CNC(=O)c3ccc(Cc4cc5c(cc4C)C(C)(C)CCC5(C)C)o3)CC2)n1` (stereo not drawn) [Compound 71], the IC50 worked out at 2 µM.

Take `Cc1cc2c(cc1Cc1ccc(C(=O)Nc3cccc(CO)c3)o1)C(C)(C)CCC2(C)C` [Compound 121]: the IC50 stood at 1.1 µM.

As for `Cc1ccc([C@H](C)NC(=O)c2ccc(Cc3cc4c(cc3C)C(C)(C)CCC4(C)C)o2)cc1` [Compound 123], the IC50 is 0.51 µM.

On to `COC(CNC(=O)c1ccc(Cc2cc3c(cc2C)C(C)(C)CCC3(C)C)o1)OC` [Compound 131], for which the IC50 was determined as 0.6 µM.

Take `CCCOCCNC(=O)c1ccc(Cc2cc3c(cc2C)C(C)(C)CCC3(C)C)o1` [Compound 132]: the IC50 worked out at 0.64 µM.

With `Cc1cc2c(cc1Cc1ccc(C(=O)NCCC3OCCO3)o1)C(C)(C)CCC2(C)C` [Compound 133], the IC50 was 0.49 µM.

For `CCN(CC)CCOC(=O)c1ccc(NC(=O)c2ccc(Cc3cc4c(cc3C)C(C)(C)CCC4(C)C)o2)cc1` [Compound 135], the IC50 stood at 1.44 µM.

Take `Cc1cc2c(cc1Cc1ccc(C(=O)NCc3cccc(CNc4ncnc5scc(C)c45)c3)o1)C(C)(C)CCC2(C)C` [Compound 142]: the IC50 is 3 µM.

As to `Cc1cc2c(cc1Cc1ccc(C(=O)NCc3cccc(CNc4nccc(C(F)(F)F)n4)c3)o1)C(C)(C)CCC2(C)C` [Compound 143], the IC50 came out at 1.87 µM.

As to `Cc1cc(NCc2cccc(CNC(=O)c3ccc(Cc4cc5c(cc4C)C(C)(C)CCC5(C)C)o3)c2)nc(N)n1` [Compound 144], the IC50 came out at 0.23 µM.

As for `Cc1cc2c(cc1Cc1ccc(C(=O)NCc3cccc(CNc4cc(Cl)nc(N)n4)c3)o1)C(C)(C)CCC2(C)C` [Compound 145], the IC50 was found to be 0.2 µM.

Consider `COc1cccc(OC)c1NC(=O)c1ccc(Cc2cc3c(cc2C)C(C)(C)CCC3(C)C)s1` [Compound 146], for which the IC50 was above 10 µM.

On to `Cc1cc2c(cc1Cc1ccc(C(=O)NCc3cccc(CNc4ncnc5c(C)csc45)c3)o1)C(C)(C)CCC2(C)C` [Compound 149], for which the IC50 stood at 0.36 µM.

For `Cc1cc2c(cc1Cc1ccc(C(=O)NC3CCC(Nc4nccc(NCC5CCCO5)n4)CC3)o1)C(C)(C)CCC2(C)C` (stereo not drawn) [Compound 152], the IC50 was determined as 0.7 µM.

Consider `Cc1cc2c(cc1Cc1ccc(C(=O)NCc3cccc(CNc4ncc(F)c(N)n4)c3)o1)C(C)(C)CCC2(C)C` [Compound 157], for which the IC50 was found to be 0.62 µM.

For `COC(=O)c1cc(C)nc(NCc2cccc(CNC(=O)c3ccc(Cc4cc5c(cc4C)C(C)(C)CCC5(C)C)o3)c2)n1` [Compound 158], the IC50 came out at 1.09 µM.

As for `COc1ccccc1NC(=O)c1ccc(Cc2cc3c(cc2C)C(C)(C)CCC3(C)C)o1` [Compound 160], the IC50 stood at 0.39 µM.

As for `CSc1ccccc1NC(=O)c1ccc(Cc2cc3c(cc2C)C(C)(C)CCC3(C)C)o1` [Compound 161], the IC50 was 0.3 µM.

On to `Cc1cc2c(cc1Cc1ccc(C(=O)NCC(=O)O)o1)C(C)(C)CCC2(C)C` [Compound 162], for which the IC50 was above 10 µM.

For `Cc1ncc(CNC(=O)c2ccc(Cc3cc4c(cc3C)C(C)(C)CCC4(C)C)o2)c(N)n1` [Compound 163], the IC50 was found to be 1.96 µM.

In the case of `COC(=O)CNC(=O)c1ccc(Cc2cc3c(cc2C)C(C)(C)CCC3(C)C)o1` [Compound 164], the IC50 was found to be 1.97 µM.

As to `Cc1cc2c(cc1Cc1ccc(C(=O)NCc3ccc4c(c3)C(C)(C)CCC4(C)C)o1)C(C)(C)CCC2(C)C` [Compound 165], the IC50 was above 10 µM.

`Cc1cc2c(cc1Cc1ccc(C(=O)NCc3ccc(CN(C)C)cc3)o1)C(C)(C)CCC2(C)C` [Compound 166]: the IC50 amounted to 0.26 µM.

On to `CNc1ccccc1NC(=O)c1ccc(Cc2cc3c(cc2C)C(C)(C)CCC3(C)C)o1` [Compound 167], for which the IC50 was 7.64 µM.

For `COc1cc(OC)c(NC(=O)c2ccc(Cc3cc4c(cc3C(C)C)C(C)(C)CCC4(C)C)o2)c(OC)c1` [Compound 171], the IC50 came out at 1.14 µM.

As to `COc1cc(OC)c(CNC(=O)c2ccc(Cc3cc4c(cc3C)C(C)(C)CCC4(C)C)o2)c(OC)c1` [Compound 172], the IC50 was found to be 3.2 µM.

Consider `COc1cc(OC)c([N+](=O)[O-])c(NC(=O)c2ccc(Cc3cc4c(cc3C)C(C)(C)CCC4(C)C)o2)c1[N+](=O)[O-]` [Compound 173], for which the 50% inhibitory concentration (IC50) is 2.8 µM.

With `Cc1cc2c(cc1Cc1ccc(C(=O)NC3O[C@H](COC(=O)C(C)(C)C)[C@H](OC(=O)C(C)(C)C)[C@H](NC(=O)C(C)(C)C)[C@H]3OC(=O)C(C)(C)C)o1)C(C)(C)CCC2(C)C` (stereo partly drawn) [Compound 175], the IC50 was above 10 µM.

As to `Cc1cc2c(cc1Cc1ccc(C(=O)NC[C@H]3CC[C@H](CNc4ccnc(NC[C@H]5CCCO5)n4)CC3)o1)C(C)(C)CCC2(C)C` [Compound 178], the IC50 is 0.185 µM.

With `COc1cc(NC(=O)c2ccc(Cc3cc4c(cc3C)C(C)(C)CCC4(C)C)o2)cc(OC)c1` [Compound 179], the IC50 amounted to 0.19 µM.

`Cc1cc2c(cc1Cc1ccc(C(=O)NCc3cccc(CNc4ncnc5[nH]ccc45)c3)o1)C(C)(C)CCC2(C)C` [Compound 180]: the IC50 was 0.35 µM.

For `COc1cc(OC)c(NC(=O)c2ccc(Cc3c(C)c(C)c4c(c3C)C=CC(C)(C)O4)o2)c(OC)c1` [Compound 184], the IC50 stood at 0.56 µM.

Consider `COc1ccc(OC)c(Cc2ccc(C(=O)Nc3c(OC)cc(OC)cc3OC)o2)c1` [Compound 186], for which the IC50 worked out at 7.31 µM.

Turning to `COC(=O)N1CCC(C)(C)c2cc(OC)cc(Cc3ccc(C(=O)Nc4c(OC)cc(OC)cc4OC)o3)c21` [Compound 187], the IC50 amounted to 9 µM.

For the compound `Cc1cc2c(cc1Cc1ccc(C(=O)Nc3c(O)cccc3O)o1)C(C)(C)CCC2(C)C` [Compound 189], the IC50 amounted to 0.94 µM.

For `COc1cc(OC)c(NC(=O)c2ccc(C(=O)c3cc4c(cc3C)C(C)(C)CCC4(C)C)o2)c(OC)c1` [Compound 190], the IC50 turned out to be 0.42 µM.

With `Cc1cc(C)c2ccc(NC(=O)c3ccc(Cc4cc5c(cc4C)C(C)(C)CCC5(C)C)o3)nc2n1` [Compound 191], the IC50 is 4.24 µM.

As for `CCOc1cccc(O)c1NC(=O)c1ccc(Cc2cc3c(cc2C)C(C)(C)CCC3(C)C)o1` [Compound 192], the IC50 was found to be 0.235 µM.

Turning to `Cc1cc2c(cc1Cc1ccc(C(=O)Nc3c(O)cccc3OC(=O)c3ccc(Cc4cc5c(cc4C)C(C)(C)CCC5(C)C)o3)o1)C(C)(C)CCC2(C)C` [Compound 193], the IC50 is above 10 µM.

In the case of `Cc1cc2c(cc1Cc1ccc(C(=O)Nc3ccccc3)o1)C(C)(C)CCC2(C)C` [Compound 195], the IC50 came to 0.32 µM.

As to `COC(CNC(=O)c1ccc(Cc2cc3c(cc2C)C(C)(C)CCC3(C)C)o1)OC` [Compound 196], the IC50 came out at 0.76 µM.

Consider `COc1cc(OC)c(NC(=O)c2ccc(Cc3c(C)c(C)c(C)c(C)c3C)o2)c(OC)c1` [Compound 197], for which the IC50 was found to be 1.04 µM.

Turning to `CCCc1nc(NC(=O)c2ccc(Cc3cc4c(cc3C)C(C)(C)CCC4(C)C)o2)ncc1C(=O)OCC` [Compound 198], the IC50 came to 0.78 µM.

On to `CCOC(=O)N1CCC(C)(C)c2c(Cc3ccc(C(=O)Nc4c(OC)cc(OC)cc4OC)o3)c(OC)cc(OC)c21` [Compound 200.5], for which the IC50 is 1.23 µM.

Turning to `COc1ccc(OC)c(Cc2ccc(C(=O)Nc3c(OC)cccc3OC)o2)c1` [Compound 202], the IC50 worked out at 1.42 µM.

On to `COc1cccc(OC)c1NC(=O)c1ccc(Cc2c(C)c(C)c(C)c(C)c2C)o1` [Compound 204], for which the IC50 was 1.27 µM.

For the compound `Cc1cc2c(cc1Cc1ccc(C(=O)Nc3ncc([N+](=O)[O-])cn3)o1)C(C)(C)CCC2(C)C` [Compound 205], the IC50 was above 10 µM.

As for `COc1cc(OC)c(NC(=O)c2ccc(Cc3cc(OC)cc(OC)c3OC)o2)c(OC)c1` [Compound 208], the IC50 came to 8.62 µM.

For the compound `COc1cc(OC)c(NC(=O)c2ccc(Cc3c(OC)ccc(OC)c3OC)o2)c(OC)c1` [Compound 209], the IC50 turned out to be 4.38 µM.

For the compound `COc1ccc(OC)c(OC)c1Cc1ccc(C(=O)Nc2c(OC)cccc2OC)o1` [Compound 211], the IC50 amounted to 1.32 µM.

The values above are taken from patent publication US7101878B1 (Agouron Pharmaceuticals, Inc., priority 1998, dated 2006).
